Results taken from patent publication US9801901B2, “Alginate oligomers for use in overcoming multidrug resistance in bacteria” (priority 2009, dated 2017).
Values after ≈ are worked out from the molar mass of the structure shown.

Key:
Assay in all cases: MIC-assay, Mueller-Hinton broth with G-block alginate, 384-well, OD600
[1] = tested on: Acinetobacter baumannii (MDR ACB, Libya, V4)
[2] = tested on: Burkholderia cepacia (LMG18941, ATCC-BAA-246)
[3] = tested on: Burkholderia cepacia (1322, V23)
[4] = Table 9, G-block (OligoCF-5/20) 0%
[5] = Table 9, G-block (OligoCF-5/20) 2%
[6] = Table 9, G-block (OligoCF-5/20) 6%
[7] = Table 9, G-block (OligoCF-5/20) 10%
[8] = ATCCBAA246|LMG18941, Table 8, G-block (OligoCF-5/20) 0%
[9] = ATCCBAA246|LMG18941, Table 8, G-block (OligoCF-5/20) 2%
[10] = ATCCBAA246|LMG18941, Table 8, G-block (OligoCF-5/20) 6%
[11] = ATCCBAA246|LMG18941, Table 8, G-block (OligoCF-5/20) 10%
[12] = Table 8, G-block (OligoCF-5/20) 0%
[13] = Table 8, G-block (OligoCF-5/20) 2%
[14] = Table 8, G-block (OligoCF-5/20) 6%
[15] = Table 8, G-block (OligoCF-5/20) 10%

Row | SMILES | MIC [1, 4] | MIC [1, 5] | MIC [1, 6] | MIC [1, 7] | MIC [2, 8] | MIC [2, 9] | MIC [2, 10] | MIC [2, 11] | MIC [3, 12] | MIC [3, 13] | MIC [3, 14] | MIC [3, 15]
1 | CC[C@H]1OC(=O)[C@H](C)[C@@H](O[C@H]2C[C@@](C)(OC)[C@@H](O)[C@H](C)O2)[C@H](C)[C@@H](O[C@@H]2O[C@H](C)C[C@H](N(C)C)[C@H]2O)[C@](C)(O)C[C@@H](C)[C@@H]2N[C@@H](COCCOC)O[C@H]([C@H]2C)[C@]1(C)O [Dirithromycin] | 64 µg/mL (≈ 76.6 µM) | 8 µg/mL (≈ 9.58 µM) | 2 µg/mL (≈ 2.39 µM) | < 1 µg/mL | 512 µg/mL (≈ 613 µM) | 256 µg/mL (≈ 307 µM) | 256 µg/mL (≈ 307 µM) | 256 µg/mL (≈ 307 µM) | 256 µg/mL (≈ 307 µM) | 256 µg/mL (≈ 307 µM) | 128 µg/mL (≈ 153 µM) | 64 µg/mL (≈ 76.6 µM)
2 | C[C@@H](O)[C@H]1C(=O)N2C(C(=O)O)=C(SCCN=CN)C[C@H]12 [Imipenem] | 2 µg/mL (≈ 6.68 µM) | 2 µg/mL (≈ 6.68 µM) | 2 µg/mL (≈ 6.68 µM) | < 2 µg/mL | > 16 µg/mL | > 16 µg/mL | > 16 µg/mL | > 16 µg/mL | > 16 µg/mL | 16 µg/mL (≈ 53.4 µM) | 16 µg/mL (≈ 53.4 µM) | 16 µg/mL (≈ 53.4 µM)
